What was measured:
[1] = molecular target: Atypical kinase COQ8B, mitochondrial (Homo sapiens) (UniProt Q96D53); conditions: Compound concentration 1000.0 nM
[2] = molecular target: Dual specificity mitogen-activated protein kinase kinase 1 (Homo sapiens) (UniProt Q02750); experiment: MAP2K1 Invitrogen selectivity data (BI); conditions: Compound concentration 3.0 uM
[3] = molecular target: T1, cAMP-dependent protein kinase catalytic subunit PRKX (Homo sapiens) (UniProt P51817); experiment: PRKX Invitrogen selectivity data (BI); conditions: Compound concentration 3.0 uM
T1 sequence (whole entry): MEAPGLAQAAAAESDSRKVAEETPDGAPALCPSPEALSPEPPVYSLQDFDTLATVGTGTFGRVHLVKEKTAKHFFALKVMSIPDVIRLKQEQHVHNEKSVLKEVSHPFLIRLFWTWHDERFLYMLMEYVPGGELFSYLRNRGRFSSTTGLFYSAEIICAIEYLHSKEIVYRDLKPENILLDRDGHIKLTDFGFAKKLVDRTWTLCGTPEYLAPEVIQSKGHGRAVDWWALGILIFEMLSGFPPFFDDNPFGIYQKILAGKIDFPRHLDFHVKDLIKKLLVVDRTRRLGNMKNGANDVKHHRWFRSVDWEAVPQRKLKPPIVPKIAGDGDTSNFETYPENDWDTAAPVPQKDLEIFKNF

[4] = molecular target: B2 bradykinin receptor (Homo sapiens) (UniProt P30411); experiment: B2/HUM Cerep selectivity data (BI); conditions: Compound concentration 20.0 uM
[5] = tested on: Tyrosine-protein kinase ABL1 (Homo sapiens), P00519 [E255K]; experiment: ABL1 E255K Invitrogen selectivity data (BI); conditions: Compound concentration 3.0 uM
[6] = molecular target: Melatonin receptor type 1A (Homo sapiens) (UniProt P48039); experiment: MT1/H Eurofins-Panlabs selectivity data (BI); conditions: Compound concentration 10.0 uM
[7] = molecular target: T2, Serine/threonine-protein kinase 17A (Homo sapiens) (UniProt Q9UEE5); experiment: STK17A Invitrogen selectivity data (BI); conditions: Compound concentration 3.0 uM
T2 sequence (whole entry): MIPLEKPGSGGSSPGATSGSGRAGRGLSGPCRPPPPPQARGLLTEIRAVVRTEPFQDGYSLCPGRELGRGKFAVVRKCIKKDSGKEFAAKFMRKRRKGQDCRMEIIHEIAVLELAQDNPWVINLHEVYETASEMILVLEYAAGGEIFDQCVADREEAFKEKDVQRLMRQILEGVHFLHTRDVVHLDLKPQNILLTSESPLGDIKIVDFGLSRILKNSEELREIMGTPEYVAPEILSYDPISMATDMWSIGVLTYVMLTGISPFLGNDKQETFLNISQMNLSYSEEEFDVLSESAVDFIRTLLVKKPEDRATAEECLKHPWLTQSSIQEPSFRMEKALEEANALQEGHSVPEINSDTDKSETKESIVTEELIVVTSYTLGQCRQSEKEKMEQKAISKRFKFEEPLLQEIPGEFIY

[8] = molecular target: cGMP-dependent 3',5'-cyclic phosphodiesterase (Homo sapiens) (UniProt O00408); experiment: PDE2A1 Cerep selectivity data (BI); conditions: Compound concentration 20.0 uM
[9] = molecular target: Endothelin receptor type B (Homo sapiens) (UniProt P24530); experiment: ETB/HUM Eurofins-Panlabs selectivity data (BI); conditions: Compound concentration 10.0 uM
[10] = molecular target: Misshapen-like kinase 1 (Homo sapiens) (UniProt Q8N4C8); experiment: MINK1 Invitrogen selectivity data (BI); conditions: Compound concentration 3.0 uM
[11] = molecular target: Ribosomal protein S6 kinase alpha-3 (Homo sapiens) (UniProt P51812); experiment: RPS6KA3 Invitrogen selectivity data (BI); conditions: Compound concentration 3.0 uM
[12] = molecular target: L-type Ca2+ channel (DHP site), Cav1.2 alpha-1C (Rattus norvegicus, UniProt P22002); experiment: CA+/DHPSI/RA Eurofins-Panlabs selectivity data (BI); conditions: compound concentration 10 uM, read-out: % Ctrl
[13] = molecular target: Mitogen-activated protein kinase kinase kinase 20 (Homo sapiens) (UniProt Q9NYL2); experiment: ZAK Invitrogen selectivity data (BI); conditions: Compound concentration 3.0 uM
[14] = molecular target: T3, TGF-beta receptor type-1 (Homo sapiens) (UniProt P36897); experiment: TGFBR1 Invitrogen selectivity data (BI); conditions: Compound concentration 3.0 uM
T3 sequence (whole entry): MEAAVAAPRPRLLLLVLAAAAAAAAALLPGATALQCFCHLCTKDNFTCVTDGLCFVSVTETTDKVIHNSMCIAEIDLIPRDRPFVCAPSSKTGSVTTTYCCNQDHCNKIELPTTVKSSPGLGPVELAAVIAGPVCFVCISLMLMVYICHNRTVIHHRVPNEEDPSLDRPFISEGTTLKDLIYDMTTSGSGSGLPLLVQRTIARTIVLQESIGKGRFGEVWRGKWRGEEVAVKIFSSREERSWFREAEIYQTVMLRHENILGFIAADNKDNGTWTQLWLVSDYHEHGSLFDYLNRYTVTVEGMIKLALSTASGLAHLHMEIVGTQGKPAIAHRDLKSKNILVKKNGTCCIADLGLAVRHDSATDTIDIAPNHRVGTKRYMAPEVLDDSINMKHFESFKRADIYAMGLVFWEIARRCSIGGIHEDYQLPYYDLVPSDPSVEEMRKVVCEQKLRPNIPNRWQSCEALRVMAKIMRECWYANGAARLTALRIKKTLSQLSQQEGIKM

[15] = molecular target: Cyclin-dependent kinase 5/CDK5 activator 1 (Homo sapiens) (UniProt Q00535+Q15078); experiment: CDK5/P25 Invitrogen selectivity data (BI); type: protein-complex assay; conditions: Compound concentration 3.0 uM
[16] = molecular target: Prostaglandin E2 receptor EP2 subtype (Homo sapiens) (UniProt P43116); experiment: EP2(H) Cerep selectivity data (BI); conditions: filed as agonist, Compound concentration 20.0 uM
[17] = molecular target: Angiotensin-converting enzyme (Homo sapiens) (UniProt P12821); experiment: ACE(HU) Cerep selectivity data (BI); conditions: Compound concentration 20.0 uM
[18] = molecular target: Tumor necrosis factor (Homo sapiens) (UniProt P01375); experiment: TNFALPHA/H Cerep selectivity data (BI); conditions: Compound concentration 20.0 uM
Sequence of Tumor necrosis factor (Homo sapiens) (P01375 whole entry): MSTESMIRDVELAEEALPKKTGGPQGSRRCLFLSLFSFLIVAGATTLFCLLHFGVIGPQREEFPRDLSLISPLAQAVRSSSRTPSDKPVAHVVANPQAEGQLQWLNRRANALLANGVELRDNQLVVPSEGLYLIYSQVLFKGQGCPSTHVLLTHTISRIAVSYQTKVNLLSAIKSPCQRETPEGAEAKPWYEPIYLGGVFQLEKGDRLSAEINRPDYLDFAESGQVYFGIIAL

Sequence of Melatonin receptor type 1A (Homo sapiens) (P48039 whole entry): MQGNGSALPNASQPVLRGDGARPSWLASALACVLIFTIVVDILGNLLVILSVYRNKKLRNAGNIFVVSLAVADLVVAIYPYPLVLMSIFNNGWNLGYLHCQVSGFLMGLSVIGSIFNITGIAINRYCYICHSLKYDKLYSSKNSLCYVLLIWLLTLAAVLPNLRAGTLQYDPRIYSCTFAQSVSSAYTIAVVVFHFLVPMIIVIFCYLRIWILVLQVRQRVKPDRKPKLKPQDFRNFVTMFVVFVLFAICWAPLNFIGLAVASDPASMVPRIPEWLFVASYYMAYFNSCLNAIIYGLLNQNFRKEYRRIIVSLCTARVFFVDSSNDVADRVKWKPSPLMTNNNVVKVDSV
Sequence of B2 bradykinin receptor (Homo sapiens) (P30411 whole entry): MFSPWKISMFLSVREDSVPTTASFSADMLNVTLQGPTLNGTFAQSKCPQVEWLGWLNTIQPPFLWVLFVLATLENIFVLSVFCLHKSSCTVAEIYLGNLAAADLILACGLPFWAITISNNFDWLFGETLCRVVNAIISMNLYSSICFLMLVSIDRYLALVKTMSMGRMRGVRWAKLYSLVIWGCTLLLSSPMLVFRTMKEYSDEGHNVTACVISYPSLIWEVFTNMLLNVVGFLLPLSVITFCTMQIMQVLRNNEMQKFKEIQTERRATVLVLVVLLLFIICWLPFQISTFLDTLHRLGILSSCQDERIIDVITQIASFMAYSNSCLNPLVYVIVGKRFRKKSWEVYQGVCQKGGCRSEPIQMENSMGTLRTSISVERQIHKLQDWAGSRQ
Sequence of Endothelin receptor type B (Homo sapiens) (P24530 whole entry): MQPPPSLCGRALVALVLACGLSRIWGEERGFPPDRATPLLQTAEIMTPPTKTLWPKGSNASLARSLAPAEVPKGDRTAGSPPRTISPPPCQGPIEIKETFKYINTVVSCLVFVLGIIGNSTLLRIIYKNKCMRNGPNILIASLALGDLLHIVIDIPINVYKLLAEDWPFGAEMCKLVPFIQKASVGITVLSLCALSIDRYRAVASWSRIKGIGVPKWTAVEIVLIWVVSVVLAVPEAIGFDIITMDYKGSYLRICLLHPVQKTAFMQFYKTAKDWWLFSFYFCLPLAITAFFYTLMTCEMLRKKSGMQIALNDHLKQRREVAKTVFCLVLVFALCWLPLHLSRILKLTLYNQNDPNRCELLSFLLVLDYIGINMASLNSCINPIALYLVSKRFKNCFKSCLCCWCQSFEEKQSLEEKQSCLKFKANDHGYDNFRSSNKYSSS
Sequence of Ribosomal protein S6 kinase alpha-3 (Homo sapiens) (P51812 whole entry): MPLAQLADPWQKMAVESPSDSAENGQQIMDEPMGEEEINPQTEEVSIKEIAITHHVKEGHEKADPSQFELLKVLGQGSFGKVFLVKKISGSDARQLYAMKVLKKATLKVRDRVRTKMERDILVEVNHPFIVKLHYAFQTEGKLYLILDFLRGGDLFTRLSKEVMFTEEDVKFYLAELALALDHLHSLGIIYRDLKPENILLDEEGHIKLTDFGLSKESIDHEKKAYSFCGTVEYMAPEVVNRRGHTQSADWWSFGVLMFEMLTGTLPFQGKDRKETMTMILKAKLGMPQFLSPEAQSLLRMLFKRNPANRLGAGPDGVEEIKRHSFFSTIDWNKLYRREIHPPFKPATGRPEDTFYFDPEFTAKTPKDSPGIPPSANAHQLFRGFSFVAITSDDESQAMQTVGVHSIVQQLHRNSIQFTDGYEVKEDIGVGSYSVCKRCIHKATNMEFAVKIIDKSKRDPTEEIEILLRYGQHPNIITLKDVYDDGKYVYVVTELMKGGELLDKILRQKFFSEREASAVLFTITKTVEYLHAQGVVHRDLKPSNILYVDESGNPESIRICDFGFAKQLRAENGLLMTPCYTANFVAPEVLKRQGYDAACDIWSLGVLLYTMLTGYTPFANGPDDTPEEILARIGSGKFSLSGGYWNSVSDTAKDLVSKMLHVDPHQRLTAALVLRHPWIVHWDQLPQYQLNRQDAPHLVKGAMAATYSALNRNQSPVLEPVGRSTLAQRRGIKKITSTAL
Sequence of Atypical kinase COQ8B, mitochondrial (Homo sapiens) (Q96D53 whole entry): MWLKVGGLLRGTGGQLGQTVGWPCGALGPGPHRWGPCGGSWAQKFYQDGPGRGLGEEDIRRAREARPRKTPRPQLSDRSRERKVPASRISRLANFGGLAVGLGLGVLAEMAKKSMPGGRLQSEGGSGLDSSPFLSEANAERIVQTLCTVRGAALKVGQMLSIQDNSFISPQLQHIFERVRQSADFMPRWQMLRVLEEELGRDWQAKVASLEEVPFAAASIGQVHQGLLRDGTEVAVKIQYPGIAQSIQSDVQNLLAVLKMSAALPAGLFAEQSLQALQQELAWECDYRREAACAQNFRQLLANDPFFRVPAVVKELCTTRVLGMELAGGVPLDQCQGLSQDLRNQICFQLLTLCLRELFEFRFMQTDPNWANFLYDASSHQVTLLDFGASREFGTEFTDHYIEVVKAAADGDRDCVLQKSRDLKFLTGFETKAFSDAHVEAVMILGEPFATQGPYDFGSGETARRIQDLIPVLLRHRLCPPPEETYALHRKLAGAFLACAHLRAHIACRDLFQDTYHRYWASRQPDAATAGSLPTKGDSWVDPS
Sequence of Cyclin-dependent kinase 5/CDK5 activator 1 (Homo sapiens) (Q00535 whole entry): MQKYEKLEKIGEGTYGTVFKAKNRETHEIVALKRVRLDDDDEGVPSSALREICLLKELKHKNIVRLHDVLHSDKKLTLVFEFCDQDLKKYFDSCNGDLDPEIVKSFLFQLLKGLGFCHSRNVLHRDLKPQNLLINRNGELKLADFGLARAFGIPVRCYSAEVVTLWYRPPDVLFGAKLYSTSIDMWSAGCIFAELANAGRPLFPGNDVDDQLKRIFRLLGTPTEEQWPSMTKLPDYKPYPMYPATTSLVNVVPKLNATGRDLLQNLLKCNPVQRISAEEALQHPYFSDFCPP
Sequence of Cyclin-dependent kinase 5/CDK5 activator 1 (Homo sapiens) (Q15078 99-307 partner limits assumed): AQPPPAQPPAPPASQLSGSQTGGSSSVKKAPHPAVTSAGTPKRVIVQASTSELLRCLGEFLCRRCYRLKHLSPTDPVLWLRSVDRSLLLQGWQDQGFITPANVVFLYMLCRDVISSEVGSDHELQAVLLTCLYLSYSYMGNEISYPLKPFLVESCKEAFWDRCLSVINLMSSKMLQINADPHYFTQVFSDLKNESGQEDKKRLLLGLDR
Sequence of Dual specificity mitogen-activated protein kinase kinase 1 (Homo sapiens) (Q02750 whole entry): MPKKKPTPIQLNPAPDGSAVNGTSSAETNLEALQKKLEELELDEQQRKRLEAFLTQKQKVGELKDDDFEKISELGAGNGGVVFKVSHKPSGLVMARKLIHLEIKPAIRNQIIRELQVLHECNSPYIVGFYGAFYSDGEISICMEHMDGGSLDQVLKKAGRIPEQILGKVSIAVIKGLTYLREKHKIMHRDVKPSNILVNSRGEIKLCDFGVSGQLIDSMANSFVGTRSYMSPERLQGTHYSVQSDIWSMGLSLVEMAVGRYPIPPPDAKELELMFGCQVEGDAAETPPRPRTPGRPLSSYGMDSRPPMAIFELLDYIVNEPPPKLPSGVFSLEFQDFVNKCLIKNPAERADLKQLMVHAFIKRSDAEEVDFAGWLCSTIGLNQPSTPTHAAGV
Sequence of Angiotensin-converting enzyme (Homo sapiens) (P12821 whole entry): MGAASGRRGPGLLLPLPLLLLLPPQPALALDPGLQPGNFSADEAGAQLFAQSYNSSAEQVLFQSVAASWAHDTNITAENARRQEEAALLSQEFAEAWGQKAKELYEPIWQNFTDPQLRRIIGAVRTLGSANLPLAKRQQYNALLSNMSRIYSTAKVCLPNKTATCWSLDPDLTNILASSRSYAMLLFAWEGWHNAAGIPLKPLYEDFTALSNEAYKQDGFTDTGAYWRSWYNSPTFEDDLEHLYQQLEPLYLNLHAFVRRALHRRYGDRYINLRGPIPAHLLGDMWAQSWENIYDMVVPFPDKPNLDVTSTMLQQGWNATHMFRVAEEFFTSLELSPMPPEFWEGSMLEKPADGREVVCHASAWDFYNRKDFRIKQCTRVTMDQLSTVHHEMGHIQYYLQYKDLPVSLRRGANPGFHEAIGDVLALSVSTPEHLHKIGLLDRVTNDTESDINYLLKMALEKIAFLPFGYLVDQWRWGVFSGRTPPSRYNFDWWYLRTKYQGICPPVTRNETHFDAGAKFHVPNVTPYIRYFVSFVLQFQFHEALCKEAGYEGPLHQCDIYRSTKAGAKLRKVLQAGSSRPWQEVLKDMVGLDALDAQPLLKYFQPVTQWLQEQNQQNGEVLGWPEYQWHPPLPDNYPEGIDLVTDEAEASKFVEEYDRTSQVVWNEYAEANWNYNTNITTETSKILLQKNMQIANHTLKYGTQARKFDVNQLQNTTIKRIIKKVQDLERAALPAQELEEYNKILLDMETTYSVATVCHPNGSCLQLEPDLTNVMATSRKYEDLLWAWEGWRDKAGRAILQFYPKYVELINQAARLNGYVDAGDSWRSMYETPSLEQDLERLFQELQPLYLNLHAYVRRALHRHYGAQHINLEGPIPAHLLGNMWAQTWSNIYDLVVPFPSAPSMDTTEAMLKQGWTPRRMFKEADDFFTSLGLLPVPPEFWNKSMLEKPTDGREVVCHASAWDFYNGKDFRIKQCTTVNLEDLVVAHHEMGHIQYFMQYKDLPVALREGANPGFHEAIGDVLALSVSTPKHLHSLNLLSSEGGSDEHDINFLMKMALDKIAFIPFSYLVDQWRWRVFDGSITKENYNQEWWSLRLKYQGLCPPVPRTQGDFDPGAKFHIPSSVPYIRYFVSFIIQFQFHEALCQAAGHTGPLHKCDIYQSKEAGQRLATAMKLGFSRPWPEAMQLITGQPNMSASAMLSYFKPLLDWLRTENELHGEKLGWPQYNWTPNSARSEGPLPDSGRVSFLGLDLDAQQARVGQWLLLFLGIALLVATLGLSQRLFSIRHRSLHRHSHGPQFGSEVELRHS

| Compound | residual activity [1] | residual activity [2] | residual activity [3] | residual activity [4] | residual activity [5] | residual activity [6] | residual activity [7] | residual activity [8] | residual activity [9] | residual activity [10] | residual activity [11] | activity at 10 µM [12] | residual activity [13] | residual activity [14] | residual activity [15] | residual activity [16] | residual activity [17] | residual activity [18] |
| --- | --- | --- | --- | --- | --- | --- | --- | --- | --- | --- | --- | --- | --- | --- | --- | --- | --- | --- |
| CN(C)C(=O)Cn1cc(-c2nc(C3(c4ccc(-c5cnc(N)nc5)cc4)CC3)no2)cn1 [BI 0153] | 100% | – | – | – | – | – | – | – | – | – | – | – | – | – | – | – | – | – |
| CN(C)C(=O)Cn1cc(-c2nc([C@@](C)(c3ccc(-c4cnc(N)nc4)cc3)C3CC3)no2)cn1 [BI 665915] | – | 98% | 102% | 102% | 82% | 96% | 96% | 97% | 98% | 93% | 105% | 98% (not active) | 97% | 96% | 100% | 97% | 127% | 87% |

Reference: ChEMBL document CHEMBL4507276 (2021)
